# Experimental data published in patent US9963445B2, “Chemical compounds” (SYNGENTA PARTICIPATIONS AG, priority 2013, dated 2018).
# Test system: Abutilon theophrasti
# Test: Pre-emergence herbicidal activity, glasshouse pot test
# Assay type: in vivo
# Conditions: pre-emergence spray, rate 1000 g/ha, evaluated after 13 days, scale 0-5
# Procedure, shortened: (§1)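 Sown pots sprayed pre-emergence (day 1), acetone/water + 0.5% Tween 20 vehicle. Damage rated 0–5 at 13 days.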
row,SMILES,"ABUTH damage score, application pre-emergence"
1,CC1=C(Br)C(=O)N(c2cc(C(C)(C)C#N)ncn2)C1O (stereo not drawn) [CG3],4
2,COC1=C(OC)C(O)N(c2cc(C(F)(F)F)ncn2)C1=O (stereo not drawn) [CK4],5
3,CC1=C(Cl)C(=O)N(c2nccc(C(F)(F)F)n2)C1O (stereo not drawn) [DF1],4
4,CC1=C(Cl)C(=O)N(c2nccc(C(C)(C)C)n2)C1O (stereo not drawn) [DF2],5
5,CCOc1nc(N2C(=O)C(Cl)=C(C)C2O)ncc1C#N (stereo not drawn) [DF4],0
6,CC1=C(Cl)C(=O)N(c2nccc(C(C)(C)C#N)n2)C1O (stereo not drawn) [DF5],5
7,CC1=C(Cl)C(=O)N(c2ncc(C#N)c(C(C)(C)C)n2)C1O (stereo not drawn) [DF6],2
8,COC1=C(C)C(O)N(c2nccc(C(C)(C)C)n2)C1=O (stereo not drawn) [DI1],5

# Test system: Setaria faberi
# Test: as above
# Assay type: in vivo
# Conditions: pre-emergence spray, rate 1000 g/ha, evaluated after 13 days, scale 0-5
# Procedure, shortened: as §1
row,SMILES,"SETFA damage score, application pre-emergence"
1,CC1=C(Br)C(=O)N(c2cc(C(C)(C)C#N)ncn2)C1O (stereo not drawn) [CG3],5
2,COC1=C(OC)C(O)N(c2cc(C(F)(F)F)ncn2)C1=O (stereo not drawn) [CK4],5
3,CC1=C(Cl)C(=O)N(c2nccc(C(F)(F)F)n2)C1O (stereo not drawn) [DF1],4
4,CC1=C(Cl)C(=O)N(c2nccc(C(C)(C)C)n2)C1O (stereo not drawn) [DF2],5
5,CCOc1nc(N2C(=O)C(Cl)=C(C)C2O)ncc1C#N (stereo not drawn) [DF4],0
6,CC1=C(Cl)C(=O)N(c2nccc(C(C)(C)C#N)n2)C1O (stereo not drawn) [DF5],4
7,CC1=C(Cl)C(=O)N(c2ncc(C#N)c(C(C)(C)C)n2)C1O (stereo not drawn) [DF6],4
8,COC1=C(C)C(O)N(c2nccc(C(C)(C)C)n2)C1=O (stereo not drawn) [DI1],5

# Test system: Echinochloa crus-galli
# Test: as above
# Assay type: in vivo
# Conditions: pre-emergence spray, rate 1000 g/ha, evaluated after 13 days, scale 0-5
# Procedure, shortened: as §1
row,SMILES,"ECHCG damage score, application pre-emergence"
1,CC1=C(Br)C(=O)N(c2cc(C(C)(C)C#N)ncn2)C1O (stereo not drawn) [CG3],4
2,COC1=C(OC)C(O)N(c2cc(C(F)(F)F)ncn2)C1=O (stereo not drawn) [CK4],4
3,CC1=C(Cl)C(=O)N(c2nccc(C(F)(F)F)n2)C1O (stereo not drawn) [DF1],4
4,CC1=C(Cl)C(=O)N(c2nccc(C(C)(C)C)n2)C1O (stereo not drawn) [DF2],5
5,CCOc1nc(N2C(=O)C(Cl)=C(C)C2O)ncc1C#N (stereo not drawn) [DF4],0
6,CC1=C(Cl)C(=O)N(c2nccc(C(C)(C)C#N)n2)C1O (stereo not drawn) [DF5],5
7,CC1=C(Cl)C(=O)N(c2ncc(C#N)c(C(C)(C)C)n2)C1O (stereo not drawn) [DF6],4
8,COC1=C(C)C(O)N(c2nccc(C(C)(C)C)n2)C1=O (stereo not drawn) [DI1],5

# Test system: zea mays
# Test: as above
# Assay type: in vivo
# Conditions: pre-emergence spray, rate 1000 g/ha, evaluated after 13 days, scale 0-5
# Procedure, shortened: as §1
row,SMILES,"ZEAMX damage score, application pre-emergence"
1,CC1=C(Br)C(=O)N(c2cc(C(C)(C)C#N)ncn2)C1O (stereo not drawn) [CG3],3
2,COC1=C(OC)C(O)N(c2cc(C(F)(F)F)ncn2)C1=O (stereo not drawn) [CK4],3
3,CC1=C(Cl)C(=O)N(c2nccc(C(F)(F)F)n2)C1O (stereo not drawn) [DF1],2
4,CC1=C(Cl)C(=O)N(c2nccc(C(C)(C)C)n2)C1O (stereo not drawn) [DF2],2
5,CCOc1nc(N2C(=O)C(Cl)=C(C)C2O)ncc1C#N (stereo not drawn) [DF4],0
6,CC1=C(Cl)C(=O)N(c2nccc(C(C)(C)C#N)n2)C1O (stereo not drawn) [DF5],3
7,CC1=C(Cl)C(=O)N(c2ncc(C#N)c(C(C)(C)C)n2)C1O (stereo not drawn) [DF6],2
8,COC1=C(C)C(O)N(c2nccc(C(C)(C)C)n2)C1=O (stereo not drawn) [DI1],2

# Test system: Alopecurus myosuroides
# Test: as above
# Assay type: in vivo
# Conditions: pre-emergence spray, rate 1000 g/ha, evaluated after 13 days, scale 0-5
# Procedure, shortened: as §1
row,SMILES,"ALOMY damage score, application pre-emergence"
1,CC1=C(Br)C(=O)N(c2cc(C(C)(C)C#N)ncn2)C1O (stereo not drawn) [CG3],4
2,COC1=C(OC)C(O)N(c2cc(C(F)(F)F)ncn2)C1=O (stereo not drawn) [CK4],4
3,CC1=C(Cl)C(=O)N(c2nccc(C(F)(F)F)n2)C1O (stereo not drawn) [DF1],4
4,CC1=C(Cl)C(=O)N(c2nccc(C(C)(C)C)n2)C1O (stereo not drawn) [DF2],4
5,CCOc1nc(N2C(=O)C(Cl)=C(C)C2O)ncc1C#N (stereo not drawn) [DF4],0
6,CC1=C(Cl)C(=O)N(c2nccc(C(C)(C)C#N)n2)C1O (stereo not drawn) [DF5],4
7,CC1=C(Cl)C(=O)N(c2ncc(C#N)c(C(C)(C)C)n2)C1O (stereo not drawn) [DF6],3
8,COC1=C(C)C(O)N(c2nccc(C(C)(C)C)n2)C1=O (stereo not drawn) [DI1],3

# Test system: Amaranthus retroflexus
# Test: as above
# Assay type: in vivo
# Conditions: pre-emergence spray, rate 1000 g/ha, evaluated after 13 days, scale 0-5
# Procedure, shortened: as §1
row,SMILES,"AMARE damage score, application pre-emergence"
1,CC1=C(Br)C(=O)N(c2cc(C(C)(C)C#N)ncn2)C1O (stereo not drawn) [CG3],5
2,COC1=C(OC)C(O)N(c2cc(C(F)(F)F)ncn2)C1=O (stereo not drawn) [CK4],4
3,CC1=C(Cl)C(=O)N(c2nccc(C(F)(F)F)n2)C1O (stereo not drawn) [DF1],5
4,CC1=C(Cl)C(=O)N(c2nccc(C(C)(C)C)n2)C1O (stereo not drawn) [DF2],5
5,CCOc1nc(N2C(=O)C(Cl)=C(C)C2O)ncc1C#N (stereo not drawn) [DF4],0
6,CC1=C(Cl)C(=O)N(c2nccc(C(C)(C)C#N)n2)C1O (stereo not drawn) [DF5],5
7,CC1=C(Cl)C(=O)N(c2ncc(C#N)c(C(C)(C)C)n2)C1O (stereo not drawn) [DF6],5
8,COC1=C(C)C(O)N(c2nccc(C(C)(C)C)n2)C1=O (stereo not drawn) [DI1],5

# Test system: Abutilon theophrasti
# Test: Post-emergence herbicidal activity, glasshouse pot test
# Assay type: in vivo
# Set-up: key: 0 = no damage to plant, 5 = total damage to plant
# Conditions: Application post-emergence, rate 1000 g/ha, evaluated after 13 days
# Procedure, shortened: (§2)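 Pot-grown seedlings, sown in standard soil, were sprayed 8 days after sowing and kept in a controlled glasshouse (24/16 °C, 14 h photoperiod, 65% humidity). Injury was assessed visually 13 days later on a scale where 5 means total damage.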
row,SMILES,ABUTH herbicidal damage score
1,CC1=C(Br)C(=O)N(c2cc(C(C)(C)C#N)ncn2)C1O (stereo not drawn) [CG3],5
2,COC1=C(OC)C(O)N(c2cc(C(F)(F)F)ncn2)C1=O (stereo not drawn) [CK4],5
3,CC1=C(Cl)C(=O)N(c2nccc(C(F)(F)F)n2)C1O (stereo not drawn) [DF1],5
4,CC1=C(Cl)C(=O)N(c2nccc(C(C)(C)C)n2)C1O (stereo not drawn) [DF2],5
5,CCOc1nc(N2C(=O)C(Cl)=C(C)C2O)ncc1C#N (stereo not drawn) [DF4],0
6,CC1=C(Cl)C(=O)N(c2nccc(C(C)(C)C#N)n2)C1O (stereo not drawn) [DF5],5
7,CC1=C(Cl)C(=O)N(c2ncc(C#N)c(C(C)(C)C)n2)C1O (stereo not drawn) [DF6],5
8,COC1=C(C)C(O)N(c2nccc(C(C)(C)C)n2)C1=O (stereo not drawn) [DI1],5

# Test system: Setaria faberi
# Test: as above
# Assay type: in vivo
# Set-up: key: 0 = no damage to plant, 5 = total damage to plant
# Conditions: Application post-emergence, rate 1000 g/ha, evaluated after 13 days
# Procedure, shortened: as §2
row,SMILES,SETFA herbicidal damage score
1,CC1=C(Br)C(=O)N(c2cc(C(C)(C)C#N)ncn2)C1O (stereo not drawn) [CG3],5
2,COC1=C(OC)C(O)N(c2cc(C(F)(F)F)ncn2)C1=O (stereo not drawn) [CK4],5
3,CC1=C(Cl)C(=O)N(c2nccc(C(F)(F)F)n2)C1O (stereo not drawn) [DF1],5
4,CC1=C(Cl)C(=O)N(c2nccc(C(C)(C)C)n2)C1O (stereo not drawn) [DF2],5
5,CCOc1nc(N2C(=O)C(Cl)=C(C)C2O)ncc1C#N (stereo not drawn) [DF4],0
6,CC1=C(Cl)C(=O)N(c2nccc(C(C)(C)C#N)n2)C1O (stereo not drawn) [DF5],4
7,CC1=C(Cl)C(=O)N(c2ncc(C#N)c(C(C)(C)C)n2)C1O (stereo not drawn) [DF6],5
8,COC1=C(C)C(O)N(c2nccc(C(C)(C)C)n2)C1=O (stereo not drawn) [DI1],5

# Test system: Echinochloa crus-galli
# Test: as above
# Assay type: in vivo
# Set-up: key: 0 = no damage to plant, 5 = total damage to plant
# Conditions: Application post-emergence, rate 1000 g/ha, evaluated after 13 days
# Procedure, shortened: as §2
row,SMILES,ECHCG herbicidal damage score
1,CC1=C(Br)C(=O)N(c2cc(C(C)(C)C#N)ncn2)C1O (stereo not drawn) [CG3],5
2,COC1=C(OC)C(O)N(c2cc(C(F)(F)F)ncn2)C1=O (stereo not drawn) [CK4],5
3,CC1=C(Cl)C(=O)N(c2nccc(C(F)(F)F)n2)C1O (stereo not drawn) [DF1],5
4,CC1=C(Cl)C(=O)N(c2nccc(C(C)(C)C)n2)C1O (stereo not drawn) [DF2],5
5,CCOc1nc(N2C(=O)C(Cl)=C(C)C2O)ncc1C#N (stereo not drawn) [DF4],0
6,CC1=C(Cl)C(=O)N(c2nccc(C(C)(C)C#N)n2)C1O (stereo not drawn) [DF5],5
7,CC1=C(Cl)C(=O)N(c2ncc(C#N)c(C(C)(C)C)n2)C1O (stereo not drawn) [DF6],5
8,COC1=C(C)C(O)N(c2nccc(C(C)(C)C)n2)C1=O (stereo not drawn) [DI1],5

# Test system: zea mays
# Test: as above
# Assay type: in vivo
# Set-up: key: 0 = no damage to plant, 5 = total damage to plant
# Conditions: Application post-emergence, rate 1000 g/ha, evaluated after 13 days
# Procedure, shortened: as §2
row,SMILES,ZEAMX herbicidal damage score
1,CC1=C(Br)C(=O)N(c2cc(C(C)(C)C#N)ncn2)C1O (stereo not drawn) [CG3],3
2,COC1=C(OC)C(O)N(c2cc(C(F)(F)F)ncn2)C1=O (stereo not drawn) [CK4],4
3,CC1=C(Cl)C(=O)N(c2nccc(C(F)(F)F)n2)C1O (stereo not drawn) [DF1],4
4,CC1=C(Cl)C(=O)N(c2nccc(C(C)(C)C)n2)C1O (stereo not drawn) [DF2],1
5,CCOc1nc(N2C(=O)C(Cl)=C(C)C2O)ncc1C#N (stereo not drawn) [DF4],0
6,CC1=C(Cl)C(=O)N(c2nccc(C(C)(C)C#N)n2)C1O (stereo not drawn) [DF5],3
7,CC1=C(Cl)C(=O)N(c2ncc(C#N)c(C(C)(C)C)n2)C1O (stereo not drawn) [DF6],1
8,COC1=C(C)C(O)N(c2nccc(C(C)(C)C)n2)C1=O (stereo not drawn) [DI1],1

# Test system: Alopecurus myosuroides
# Test: as above
# Assay type: in vivo
# Set-up: key: 0 = no damage to plant, 5 = total damage to plant
# Conditions: Application post-emergence, rate 1000 g/ha, evaluated after 13 days
# Procedure, shortened: as §2
row,SMILES,ALOMY herbicidal damage score
1,CC1=C(Br)C(=O)N(c2cc(C(C)(C)C#N)ncn2)C1O (stereo not drawn) [CG3],5
2,COC1=C(OC)C(O)N(c2cc(C(F)(F)F)ncn2)C1=O (stereo not drawn) [CK4],5
3,CC1=C(Cl)C(=O)N(c2nccc(C(F)(F)F)n2)C1O (stereo not drawn) [DF1],4
4,CC1=C(Cl)C(=O)N(c2nccc(C(C)(C)C)n2)C1O (stereo not drawn) [DF2],5
5,CCOc1nc(N2C(=O)C(Cl)=C(C)C2O)ncc1C#N (stereo not drawn) [DF4],0
6,CC1=C(Cl)C(=O)N(c2nccc(C(C)(C)C#N)n2)C1O (stereo not drawn) [DF5],4
7,CC1=C(Cl)C(=O)N(c2ncc(C#N)c(C(C)(C)C)n2)C1O (stereo not drawn) [DF6],4
8,COC1=C(C)C(O)N(c2nccc(C(C)(C)C)n2)C1=O (stereo not drawn) [DI1],5

# Test system: Amaranthus retroflexus
# Test: as above
# Assay type: in vivo
# Set-up: key: 0 = no damage to plant, 5 = total damage to plant
# Conditions: Application post-emergence, rate 1000 g/ha, evaluated after 13 days
# Procedure, shortened: as §2
row,SMILES,AMARE herbicidal damage score
1,CC1=C(Br)C(=O)N(c2cc(C(C)(C)C#N)ncn2)C1O (stereo not drawn) [CG3],5
2,COC1=C(OC)C(O)N(c2cc(C(F)(F)F)ncn2)C1=O (stereo not drawn) [CK4],3
3,CC1=C(Cl)C(=O)N(c2nccc(C(F)(F)F)n2)C1O (stereo not drawn) [DF1],5
4,CC1=C(Cl)C(=O)N(c2nccc(C(C)(C)C)n2)C1O (stereo not drawn) [DF2],5
5,CCOc1nc(N2C(=O)C(Cl)=C(C)C2O)ncc1C#N (stereo not drawn) [DF4],0
6,CC1=C(Cl)C(=O)N(c2nccc(C(C)(C)C#N)n2)C1O (stereo not drawn) [DF5],5
7,CC1=C(Cl)C(=O)N(c2ncc(C#N)c(C(C)(C)C)n2)C1O (stereo not drawn) [DF6],5
8,COC1=C(C)C(O)N(c2nccc(C(C)(C)C)n2)C1=O (stereo not drawn) [DI1],5
